Entries after “also recorded” stand apart in the source; their conditions may differ.
Tests used:
[1] = test system: ATII cells and BALF of IL-17A treated mice; assay: IL-17A-induced lung injury in mice; type: in vivo, mouse; conditions: for A2EC p53, PAI-1 and apoptosis: WT mice exposed to IL-17A
Procedure: IL-17A is induced in passive tobacco smoke (PTS) exposed lung injury. […] Further, IL-17A induced ^p15Sp53 was inhibited following treatment of mice CSP7 when compared with those treated with saline and control peptide. To further test whether IL-17A induced ^p15Sp53 alters PAI-1 expression and ATII apoptosis, ATII cells of IL-17A treated mice for PAI-1 and apoptotic markers were analyzed. IL-17A induced the expression of PAI-1 and cl.Cas-3, and inhibited Sirt-1 expression in ATII cells. […] In addition, CSP7 treatment found to inhibit serine phosphorylation of p53 by neutralizing elevated IL-17A due to PTS exposure.
To test the importance of miR-34a mediated deacetylation of p53 IL-17A or PTS induced lung injury, miR34a conditional knockout mice were treated with tamoxifen. miR34a conditional knockout mice treated with IL-17A (3 μg/mice) was administered with CSP7 and CP a day later. ATII cells isolated from these mice were screened for PAI-1, Sirt-1 and apoptotic markers. […] Further, CSP7 treatment had little effect in miR-34a^cKo mice since these mice resist IL-17A or PTS injury.

[2] = test system: AECs from COPD lungs; assay: AECs from COPD lungs treated in vitro for 48 h; type: cell-based, human
Procedure: Primary Airway Epithelial Cells (AECs); Normal, Human (ATCC® PCS-301-010™) and Primary Airway Epithelial Cells; COPD (ATCC® PCS-301-013™) were obtained from the ATCC and cultured in Airway Cell Basal Medium with glutamine, Extract P, HLL Supplement, and AEC Supplement. containing and 1% penicillin-streptomycin. The cells were maintained at 37° C. in a humidified atmosphere at 5% CO2. All media, supplements, and antibiotics were purchased from ATCC.
CSP7 and CP were dissolved in DMSO and diluted in HBSS for working concentration of 300 µg/2 ml. These peptides were used for the treatment of COPD in vitro and IP injection of mice. For nasal insufflation, the peptides were formulated as follows: 0.579 mg/ml of CSP7/CP was added to 15.456 mg/ml of lactose monohydrate in phosphate buffered saline and the pH was adjusted to 8.4 to give a clear solution. The solution was filtered through a 0.22-micron syringe filter (Bhandary et al. supra; Tiwari et al., supra).
The cells were lysed with RIPA buffer (Pierce, USA) containing protease inhibitor cocktail (Roche, Germany) and phosphatase inhibitor cocktail (Sigma-Aldrich, USA) on ice for 30 min. After centrifugation at 12,000×g and 4° C. for 20 min, the supernatants were collected. The protein concentrations were determined using the BCA protein assay kit (Pierce, USA). Cell lysates were mixed with 5×SDS-PAGE sample buffer and boiled for 5 min. Thirty micrograms of protein was subjected to 10% SDS-PAGE electrophoresis and transferred to nitrocellulose membranes. The membranes were blocked with 5% milk and then incubated at 4° C. for 16 h with the following diluted primary antibodies (Tiwari et al., supra). The blots were then washed and probed with horseradish peroxidase-conjugated secondary IgG antibodies. The bound antibodies were visualized using SuperSignal™ Maximum Sensitivity Substrate (Thermo Fisher Scientific, USA). For normalization, the membranes were stripped with Restore Western blot stripping buffer and incubated with the following primary antibodies: anti-ERK (1:1000), anti-MUC5AC (1:1000), anti-HDAC6(1:1000), anti-SPDEF(1:1000), anti-FOXA2(1:1000), anti-FOXA3 (1:1000) anti-LC3(1:1000), anti-Beclin1(1:1000), anti-p62(1:1000), anti-p53(1:1000), anti-PAI-1(1:1000) and anti-GAPDH (1:1000).
Cell culture. Primary human AECs from histologically normal and COPD lungs were purchased from ATCC. These cells were cultured in AEC Basal Medium with glutamine, extract P, HLL Supplement, and AEC supplement and 1% penicillin-streptomycin at 37° C. and 5% CO2. AT2 cells were isolated from C57BL/6 mice following the method of Corti and colleagues (Roscioli et al, 2018) with minor modifications. The cells were plated on plastic culture dishes precoated with anti-CD-32 and anti-CD-45 antibodies for 2 h at […]. Non-adherent cells were collected, and the purity of AT2 cell preparations was assessed by […] for inclusion bodies (Shetty et al, 2012).
Peptide preparation. CSP7 and CP were dissolved in DMSO and diluted in HBSS as described elsewhere (Marudamuthu et al., SciTransl Med 11: eaat2848, 2019. doi: 10.1126/scitranslmed.aat2848). These peptides were used to treat AECs in vitro or IP injection of CS-exposed mice. For airway delivery by liquid nebulization, CSP7 (0.579 mg/ml) was added to PBS containing lactose monohydrate (15.456 mg/ml). The pH was adjusted to 8.4 to give a clear solution, filtered through a 0.22-micron syringe filter as described earlier (Marudamuthu et al., 2019.)
Protein extraction and Western blot assay. AEC and AT2 cell lysates were prepared using RIPA buffer (Pierce, USA) containing a protease inhibitor cocktail (Roche, Germany) and phosphatase inhibitor cocktail (Sigma-Aldrich, USA). AEC and AT2 cell lysates were subjected to Western blotting using ERK, MUC5AC, HDAC6, SPDEF, FOXA2, FOXA3, LC3, p53, PAI-1, Acp53, S15p53, cleaved caspase-3, β-galactosidase and R-actin antibodies at 1:500-1:1000 dilution (Table 1). […]

Row | Substance | A2EC p53, PAI-1 and apoptosis [1] | IL-17A induced serine phosphorylation of p53 (p15Sp53) in ATII cells ([1]; IL-17A treated mice, vs saline and control peptide) | effect in miR-34a^cKO mice ([1]; miR34a conditional knockout mice treated with IL-17A) | BALF myeloperoxidase (MPO) activity ([1]; mice with IL-17A or PTS (10 weeks) injury) | Beclin-1 and ATG5 expression [2] | ERK phosphorylation [2] | FOXA2, acetylated alpha-tubulin, CAV1, p53 and PAI-1 proteins [2] | LC3-II accumulation [2] | MMP12 expression [2] | PP2A and CIP2A protein (Western blot) [2] | PP2A mRNA [2] | p62 expression [2] | MUC5AC, HDAC6, PAI-1, p53, Cav1, FOXA3, SPDEF, LC3, FOXA2, Ac-Tub proteins (Western blot) ([2]; 48 h)
1 | DGIWKASFTTFTVTKYWFYR (listed as Homo sapiens) [CSP, 20 residue caveolin-1 scaffolding domain peptide] | reduced A2EC p53, PAI-1 and apoptosis in vivo |  |  |  |  |  |  |  |  |  |  |  | 
2 | FTTFTVT (listed as Homo sapiens) [CSP7, heptapeptide fragment of the caveolin-1 scaffolding domain peptide CSP] | reduced A2EC p53, PAI-1 and apoptosis in vivo | inhibited | little effect | significantly reduced the MPO activity | mitigate | decrease in ERK phosphorylation; also recorded: reversed in AECs exposed to CSP7 | restoration of FOXA2 and acetylated alpha-tubulin, and inhibition of CAV1, p53 and PAI-1 | reversed | decreased; also recorded: markedly reduced the MMP12 level | reversed | improved | significantly elevated | reversed; also recorded: reduced the expression of MUC5AC, HDAC6, FOXA3, SPDEF and, LC3
3 | WGIDKAFFTTSTVTYKWFRY [CP, scrambled control peptide with the same amino acid composition as CSP, reference compound] |  |  |  |  |  | still showed elevated phospho-ERK1/2 |  |  |  |  |  |  | 
